Laboratory results published in US20250152626A1, “CONSTRUCTION AND APPLICATION OF ENHANCED NEUTROPHIL DRUG” (China Pharmaceutical University, priority 2023, published 2025).

System: Human neutrophils
Experiment: Effect of single inducers on neutrophil viability (Example 1)
Assay type: cell-based
Conditions: FIG. 2; for effect on neutrophil lifespan / viability: single inducer 8 h in 1640 medium, inducer removed, culture 24 h, apoptosis by flow cytometry; for concentration with the best effect on neutrophil lifespan: cytokine inducers tested at 0-100 ng/mL
Method: Human neutrophils were incubated with different concentrations of single inducers in 1640 medium for 8 h. Different concentrations of single inducers included: • inducer 1 (IFNγ): 0, 10, 20, 30, 50, 100 ng/mL; • inducer 2 (GM-CSF): 0, 10, 20, 30, 50, 100 ng/mL; • inducer 3 (TNFα): 0, 10, 20, 30, 50, 100 ng/mL; • inducer 4 (duvalumab): 0.1, 0.5, 1, 2, 3, 5, 8, 10 μg/mL; • inducer 5 (avelumab): 0.1, 0.5, 1, 2, 3, 5, 8, 10 μg/mL; • inducer 6 (Q-VD-Oph): 1, 10, 20, 50, 60, 80, 100 μM; and • inducer 7 (Nec-1): 1, 10, 20, 50, 60, 80, 100 μM; and • conditions of culture were 37° C. and 5% CO2. The apoptosis of neutrophils was detected by flow cytometry after removing the inducer and continuing culture for 24 h.

[1] = apoptosis inhibitors tested at 1-100 μM
[2] = PD-L1 inhibitors tested at 0.1-10 μg/mL

| Molecule | concentration with the best effect on neutrophil viability [1] [µM] | effect on neutrophil lifespan / viability | concentration with the best effect on neutrophil lifespan [ng/mL] | concentration with the best effect on neutrophil viability [2] [µg/mL] |
| --- | --- | --- | --- | --- |
| CC(C)[C@H](NC(=O)c1ccc2ccccc2n1)C(=O)N[C@@H](CC(=O)O)C(=O)COc1c(F)cccc1F [inducer 6, Q-VD-Oph] | 50 | increase neutrophil viability | – | – |
| GM-CSF [inducer 2] | – | significantly prolong the lifespan of neutrophils | 20 | – |
| avelumab [inducer 5] | – | increase neutrophil viability | – | 2 |
| CN1C(=O)C(Cc2c[nH]c3ccccc23)NC1=S (stereo not drawn) [inducer 7, Nec-1] | 50 | increase neutrophil viability | – | – |
| duvalumab [inducer 4] | – | increase neutrophil viability | – | 2 |
| IFNγ (protein, UniProt P01579 24-161, looked up, cytokine, single inducer) Interferon gamma: QDPYVKEAENLKKYFNAGHSDVADNGTLFLGILKNWKEESDRKIMQSQIVSFYFKLFKNFKDDQSIQKSVETIKEDMNVKFFNSNKKKRDDFEKLTNYSVTDLNVQRKAIHELIQVMAELSPAAKTGKRKRSQMLFRG | – | significantly prolong the lifespan of neutrophils | 20 | – |
